Reference: ChEMBL document CHEMBL1165874, “Carbonic anhydrase inhibitors: synthesis and inhibition of the human cytosolic isozymes I and II and transmembrane isozymes IX, XII (cancer-associated) and XIV with 4-substituted 3-pyridinesulfonamides” (Eur J Med Chem, 2010)

Columns and labels:
Carbonic anhydrase 9 = Carbonic anhydrase 9 (Homo sapiens, UniProt Q16790)
Carbonic anhydrase 14 = Carbonic anhydrase 14 (Homo sapiens, UniProt Q9ULX7)
Sequence of Carbonic anhydrase 14 (Q9ULX7 whole entry): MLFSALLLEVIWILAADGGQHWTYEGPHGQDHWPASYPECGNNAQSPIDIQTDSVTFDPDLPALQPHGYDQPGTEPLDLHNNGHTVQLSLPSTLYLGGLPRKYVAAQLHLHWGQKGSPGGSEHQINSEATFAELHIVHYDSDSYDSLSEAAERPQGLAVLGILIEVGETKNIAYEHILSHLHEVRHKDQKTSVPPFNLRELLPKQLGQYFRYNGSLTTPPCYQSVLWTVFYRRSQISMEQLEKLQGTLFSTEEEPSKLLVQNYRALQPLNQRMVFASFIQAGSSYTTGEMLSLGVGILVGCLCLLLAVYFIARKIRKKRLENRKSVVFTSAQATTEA

Row | SMILES | Ki (Carbonic anhydrase 9) | Ki (Carbonic anhydrase 14)
1 | CC1CC=NN1c1ccncc1S(N)(=O)=O (configuration not stated) | 7.8 nM | 
2 | NS(=O)(=O)c1cnccc1Oc1ccc(F)cc1 | 7.9 nM | 
3 | NS(=O)(=O)c1ccc(S(=O)(=O)Nc2cccc3c(Cl)c[nH]c23)cc1 |  | 104 nM

Results, then the molecule that gave them:

Row | Ki (Carbonic anhydrase 9) | Ki (Carbonic anhydrase 14) | SMILES
4 | 9.6 nM |  | NS(=O)(=O)c1cnccc1Sc1nc2ccc([N+](=O)[O-])cc2s1
5 | 6.3 nM |  | C#CCSc1ccncc1S(N)(=O)=O
6 | 7.2 nM |  | N#Cc1ccc(Oc2ccncc2S(N)(=O)=O)cc1
7 | 7.7 nM |  | NS(=O)(=O)c1cnccc1Sc1nnns1
